Results taken from BindingDB's records for doi:10.1074/jbc.M113.503474 (The Ohio State University, 2013).
Where “and” joins values, the source holds several entries; their conditions need not be identical. Equal values may be shown once.

target: Isoform Tau-F of Microtubule-associated protein tau (Human, UniProt P10636); experiment: Tau Protein Assay; conditions: pH 7.4
Experimental: The Tau content of fractions was determined by dot blot analysis using nitrocellulose membranes (0.2 μm porosity) as described previously [Cisek et al., Biophys. Chem., 170:25-33]. The membranes were blocked in 5% nonfat dry milk dissolved in blocking buffer (100 mM Tris-HCl, pH 7.4, and 150 mM NaCl) for 1 h and then incubated with primary antibody Tau5 at 1:5000 dilution for 2 h. Membranes were then washed three times with blocking buffer and incubated with horseradish peroxidase-linked secondary antibody for 2 h. After washing another three times with blocking buffer, membranes were imaged using the Enhanced Chemiluminescence Western blotting Analysis System (GE Healthcare, Buckinghamshire, UK) recorded on an Omega 12iC Molecular Imaging System and quantified using Ultra-Quant software (UltraLum, Claremont, CA, USA).

Chain of Isoform Tau-F of Microtubule-associated protein tau (P10636 as listed by the source): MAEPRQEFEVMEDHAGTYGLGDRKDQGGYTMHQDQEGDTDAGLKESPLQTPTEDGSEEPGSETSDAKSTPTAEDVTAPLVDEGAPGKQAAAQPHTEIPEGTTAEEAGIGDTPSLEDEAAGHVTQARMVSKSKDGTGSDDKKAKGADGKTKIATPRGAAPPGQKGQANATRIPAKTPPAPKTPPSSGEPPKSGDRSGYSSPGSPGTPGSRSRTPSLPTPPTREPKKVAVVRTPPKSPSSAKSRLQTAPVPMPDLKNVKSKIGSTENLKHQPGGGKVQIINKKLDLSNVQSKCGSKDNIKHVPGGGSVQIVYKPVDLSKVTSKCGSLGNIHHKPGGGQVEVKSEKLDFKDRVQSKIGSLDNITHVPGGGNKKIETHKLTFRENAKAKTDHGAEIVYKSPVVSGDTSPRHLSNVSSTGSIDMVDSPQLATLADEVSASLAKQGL

Row | SMILES | IC50
1 | O=C(O)CCN1C(=O)/C(=C/c2ccc(-c3ccc(-c4ccccc4)cc3)cc2)SC1=S [Rhodanines, 60B] | 19.6 µM
2 | O=C(O)Cc1ccc(CN2C(=O)/C(=C/c3ccc(-c4ccc(-c5ccc(C(=O)O)o5)cc4)o3)SC2=S)cc1 [Rhodanines, 30A] | 0.58 µM
3 | CCCN1/C(=C/C=C/C2=[N+](CCC)c3ccccc3C2(C)C)C(C)(C)c2ccccc21 [Cyanines, 6] | 2.57 µM
4 | N=C1C=CC(=C(c2ccc(N)cc2)c2ccc(N)cc2)C=C1 [Fuschin (17)] | > 10 µM
5 | O=C1/C(=C/c2ccc(-c3ccc(-c4ccccc4)cc3)cc2)SC(=S)N1CCc1c[nH]cn1 [Rhodanines, 58B] | 12.4 µM
6 | O=C(O)c1ccc(-c2ccc(-c3ccc(/C=C4\SC(=S)N(CCc5c[nH]cn5)C4=O)o3)cc2)o1 [Rhodanines, 34A] | 0.75 µM
7 | O=C(O)Cc1ccc(CN2C(=O)/C(=C/c3cccc(-c4ccc(-c5ccccc5)cc4)c3)SC2=S)cc1 [Rhodanines, 64B] | 146 µM
8 | O=C(O)CCCCN1C(=O)/C(=C/c2cccc(-c3ccc(-c4ccccc4)cc3)n2)SC1=S [Rhodanines, 52B] | 5.03 µM
9 | O=C(O)CCCN1C(=O)/C(=C/c2cccc(-c3ccc(-c4ccccc4)cc3)n2)SC1=S [Rhodanines, 51B] | 5.03 µM
10 | O=C(O)CCN1C(=O)/C(=C/c2ccc(-c3cccc(Cl)c3)s2)SC1=S [Rhodanines, 38A] | 0.97 µM
11 | O=C(O)CCCCN1C(=O)/C(=C/c2ccc(-c3ccc(-c4ccc(C(=O)O)o4)cc3)o2)SC1=S [Rhodanines, 26A] | 0.26 µM
12 | N=c1ccc2nc3ccc(N)cc3sc-2c1 | > 10 µM
13 | O=C1C=CC(=C(c2ccc(O)cc2)c2ccc(O)cc2)C=C1 [Corallin] | > 10 µM
14 | CN(C)c1ccc(N=C2C=CC(=[N+](C)C)C=C2)cc1 [Bindschedler's green (19)] | 1.09 µM
15 | CN(C)c1ccc(C(=C2C=CC(=[N+](C)C)C=C2)c2ccc(N(C)C)cc2)cc1 [CHEBI:77181] | 0.49 µM
16 | CCC(/C=C1\Sc2ccc(OC)cc2N1CCO)=C\c1sc2ccc(OC)cc2[n+]1CCO | 0.29 µM
17 | CCN1/C(=C/C(C)=C/c2sc3ccccc3[n+]2CC)Sc2ccccc21 [SMR000354813] | 0.28 µM
18 | O=C(O)Cc1ccc(CN2C(=O)/C(=C/c3cccc(-c4ccc(-c5ccccc5)cc4)n3)SC2=S)cc1 [Rhodanines, 62B] | 35.5 µM
19 | O=C(O)CCCCN1C(=O)/C(=C/c2ccc(-c3ccc(-n4cccc4)cc3)o2)SC1=S [Rhodanines, 22A] | 0.21 µM
20 | CNc1ccc2nc3ccc(=[N+](C)C)cc-3sc2c1 [Azure B (11)] | 1.28 µM
21 | O=C(O)CCN1C(=O)C(=CC2CCC(c3ccc(-c4ccccc4)cc3)C2)SC1=S (stereo unspecified) [Rhodanines, 55A] | 7.92 µM
22 | CN(C)c1ccc(C(=C2C=CC(=[N+](C)C)C=C2)c2ccccc2)cc1 [Malachite green (16)] | 0.52 µM
23 | C/N=c1\ccc2nc3ccc(N)cc3sc-2c1 [Azure C (13)] | > 10 µM
24 | C[N+](C)=c1ccc2nc3ccc(N)cc3sc-2c1 [AZURE A] | > 10 µM
25 | O=C(O)Cc1ccc(CN2C(=O)/C(=C/c3ccc(-c4ccc(-c5ccccc5)cc4)cc3)SC2=S)cc1 [Rhodanines, 59B] | 14.8 µM
26 | O=C1/C(=C/c2cccc(-c3ccc(-c4ccccc4)cc3)n2)SC(=S)N1CCc1c[nH]cn1 [Rhodanines, 63B] | 117 µM
27 | O=C(O)CCN1C(=O)/C(=C/c2ccc(-c3ccc(-c4ccc(C(=O)O)o4)cc3)o2)SC1=S [Rhodanines, 21A] | 0.17 µM
28 | O=C1/C(=C/c2cccc(-c3ccc(-c4ccccc4)cc3)c2)SC(=S)N1CCc1c[nH]cn1 [Rhodanines, 57B] | 9.38 µM
29 | C1=C2\Sc3ccccc3N2CCCC[n+]2c(sc3ccccc32)/C=C/C=C2\Sc3ccccc3N2CCCC[n+]2c(sc3ccccc32)/C=C/1 [Cyanines, 9] | 0.12 µM

Now from value to compound:

Row | IC50 | SMILES
30 | 1.41 µM and 4.36 µM | CC(C(=O)O)N1C(=O)/C(=C/c2ccc(-c3cccc(Cl)c3)o2)SC1=S (stereo unspecified) [Rhodanines, 42A]
31 | 0.24 µM | O=C(O)CCN1C(=O)/C(=C/c2ccc(-c3ccc(-n4cccc4)cc3)o2)SC1=S [Rhodanines, 24A]
32 | 0.23 µM | O=C(O)CCCN1C(=O)/C(=C/c2ccc(-c3ccc(-n4cccc4)cc3)o2)SC1=S [Rhodanines, 23A]
33 | 1.85 µM | O=C1/C(=C/c2ccc(-c3ccc(-n4cccc4)cc3)o2)SC(=S)N1CCc1c[nH]cn1 [Rhodanines, 43A]
34 | 0.54 µM | O=C1/C(=C/c2ccc(-c3ccc(-n4cccc4)cc3)o2)SC(=S)N1Cc1nc2ccccc2[nH]1 [Rhodanines, 29A]
35 | 0.73 µM | O=C(O)Cc1ccc(CN2C(=O)/C(=C/c3ccc(-c4ccc(-c5ccccc5)cc4)o3)SC2=S)cc1 [Rhodanines, 33A]
36 | 0.65 µM | O=C(O)CCN1C(=O)/C(=C/c2ccc(-c3ccccc3Cl)o2)SC1=S [Rhodanines, 31A]
37 | 0.94 µM | O=C(O)CCCN1C(=O)/C(=C/c2ccc(-c3ccc(-c4ccccc4)cc3)o2)SC1=S [Rhodanines, 37A]
38 | 0.78 µM | O=C(O)Cc1ccc(CN2C(=O)/C(=C/c3ccc(-c4ccc(-n5cccc5)cc4)o3)SC2=S)cc1 [Rhodanines, 35A]
39 | 1.4 µM | O=C1/C(=C/c2ccc(-c3ccc(-c4ccccc4)cc3)o2)SC(=S)N1Cc1nc2ccccc2[nH]1 [Rhodanines, 41A]
40 | 0.42 µM | O=C(O)CC(C(=O)O)N1C(=O)/C(=C/c2ccc(-c3cccc(Cl)c3)o2)SC1=S (stereo unspecified) [Rhodanines, 27A]
41 | 0.24 µM | O=C(O)CCCCN1C(=O)/C(=C/c2ccc(-c3ccc(-c4ccccc4)cc3)o2)SC1=S [Rhodanines, 25A]
42 | 0.17 µM | O=C(O)CCN1C(=O)/C(=C/c2ccc(-c3ccc(-c4ccccc4)cc3)o2)SC1=S [Rhodanines, 20A]
43 | 0.47 µM | O=C(O)CCN1C(=O)/C(=C/c2ccc(-c3cccc(Cl)c3)o2)SC1=S [Rhodanines, 28A]
44 | 1.22 µM | O=C(O)CCCN1C(=O)/C(=C/c2ccc(-c3cccc(Cl)c3)o2)SC1=S [Rhodanines, 40A]
45 | 0.67 µM | O=C1/C(=C/c2ccc(-c3cccc(Cl)c3)o2)SC(=S)N1Cc1nc2ccccc2[nH]1 [Rhodanines, 32A]
46 | 0.82 µM | O=C(O)CN1C(=O)/C(=C/c2ccc(-c3cccc(Cl)c3)o2)SC1=S [Rhodanines, 36A]
47 | 6.1 µM | O=C(O)CN1C(=O)/C(=C/c2ccc(-c3cccc(Cl)c3)o2)NC1=S [Rhodanines, 53A]
48 | 7.7 µM | O=C1/C(=C/c2ccc(-c3ccc(-c4ccccc4)cc3)o2)SC(=S)N1CCc1c[nH]cn1 [Rhodanines, 54A]
49 | 3.1 µM | O=C(O)CN1C(=O)/C(=C/c2ccc(-c3cccc(Cl)c3)o2)OC1=S [Rhodanines, 46A]
50 | 1.09 µM | O=C1/C(=C/c2ccc(-c3cccc(Cl)c3)o2)SC(=S)N1CCc1c[nH]cn1 [Rhodanines, 39A]
51 | 1.97 µM | O=C(O)Cc1ccc(CN2C(=O)/C(=C/c3ccc(-c4cccc(Cl)c4)o3)SC2=S)cc1 [Rhodanines, 44A]
